Results published in patent US20100255994A1, “HERBICIDAL MIXTURE” (E.I. DU PONT DE NEMOURS AND COMPANY, priority 2007, published 2010).

System: Digitaria nuda
Experiment: Test A: postemergence greenhouse weed control, visual rating
Assay type: in vivo
Conditions: 7 DAT
Description: Plastic pots (10-cm square) were filled to the rim with a sandy loam soil having pH of 6.1, 1.4% organic matter and a cation exchange capacity (CEC) of 5.7 milliequivalents per 100 grams (meq/100 g). The soil was tamped firm to a uniform level of 2.5 cm below the rim of each pot. A measured amount of seeds of Digitaria nuda were scattered on the soil surface. Seeded pots were covered with approximately 50 mL of the same planting soil and tamped. The pots were then placed in a greenhouse and watered thoroughly 2-3 times daily as needed. A balanced fertilizer solution was injected into the watering system to provide 218 ppm of nitrogen. Artificial lighting was used to supplement natural light to produce a 14 h photoperiod. Greenhouse temperatures were targeted for 28.8° C. in the day and 19.8° C. at night.
When the D. nuda plants reached the 3-4-leaf growth stage (8-12 cm height), the pots were sorted into test units for herbicide application. Treatments were replicated three times. The herbicides were diluted in a measured amount of water and then mixed using a magnetic stir bar for 10 minutes before aliquots were taken to make individual treatment solutions. Diuron was in the form of the DuPont product KARMEX, which is a wettable granule formulation containing 80 weight % active ingredient. Hexazinone was in the form of the DuPont product VELPAR DF, which is a wettable granule formulation containing 75 weight % active ingredient. A mixture of hexazinone and diuron in 11:39 weight ratio was in the form of the DuPont product VELPAR-K (VELPAR-K4) 60 WG, which is a wettable granule formulation containing 13.2 weight % hexazinone and 46.8 weight % diuron active ingredients. A mixture of hexazinone and diuron in 1:8 weight ratio was in the form of the DuPont product VELPAR-K8 (marketed in Brazil as ADVANCE Herbicide), which is a wettable granule formulation containing 6.7 weight % hexazinone and 53.3 weight % diuron active ingredients. Topramezone was in the form of the AMVAC product IMPACT, which is a suspension concentrate formulation containing 29.7% active ingredient. These products were applied alone and in combinations. Application rates of diuron and hexazinone were […] and 210 g ai ha^−1, respectively. The application rates of the VELPAR-K4 mixture of hexazinone and diuron (132 g a.i. hexazinone+468 g a.i. diuron/kg of formulated product) and VELPAR-K8 mixture of hexazinone and diuron (67 g a.i. hexazinone+533 g a.i. diuron kg of formulated product) were 1200 and 1800 g total a.i. ha^−1, respectively. Application rates of topramezone were 6, 12, 18 and 24 g a.i./ha. (“a.i.” means active ingredient.) The pots were then sprayed through a T-Jet 8002E nozzle using a stationary belt sprayer calibrated to deliver 281 L/ha at 276 kPa. Treatments were replicated three times.
The plants were returned to the greenhouse, and then control was visually evaluated relative to the control plants at 7 days after treatment (DAT). A numerical percent rating system was used to describe the response observed from each treatment on a scale of 0 to 100%, in which 0% indicates no response and 100% indicates plant death or near death. The reported results are the mean averages of the three replicates.
Colby's Equation was used to determine the herbicidal effects expected from the mixtures. Colby's Equation (Colby, S. R. “Calculating Synergistic and Antagonistic Responses of Herbicide Combinations,” Weeds, 15(1), pp 20-22 (1967)) calculates the expected additive effect of herbicidal mixtures, and for two active ingredients, or a pair of active ingredients (e.g., diuron+hexazinone) combined with an additional active ingredient (e.g., topramezone), is of the form: […]

## CN(C)C(=O)Nc1ccc(Cl)c(Cl)c1 [Diuron, N′-(3,4-dichlorophenyl)-N,N-dimethylurea]
Diuron 1800 g a.i./ha
  % Control Observed: 20%

## CN(C)c1nc(=O)n(C2CCCCC2)c(=O)n1C [Hexazinone]
Hexazinone 210 g a.i./ha
  % Control Observed: 12%

## Cc1c(C(=O)c2cnn(C)c2O)ccc(S(C)(=O)=O)c1C1=NOCC1 [Topramezone]
Topramezone 6 g a.i./ha, 3-4-leaf stage, mean of 3 replicates
  % Control Observed: 27%
Topramezone 12 g a.i./ha
  % Control Observed: 28%
Topramezone 18 g a.i./ha
  % Control Observed: 33%
Topramezone 24 g a.i./ha
  % Control Observed: 40%
